Measurements as given in article PMC3750255, “Inhibition of Mycoplasma pneumoniae growth by FDA-approved anticancer and antiviral nucleoside and nucleobase analogs” (BMC Microbiology, 2013).
In brackets after ≈: the same amount, converted by molar mass. Where two headings read alike, the source gives them in different places.

Experiments:
[1] = system: M. pneumoniae thyA mutant (lacking TS activity); experiment: microbe, parasite or virus in culture; assay type: cell-based, Mycoplasma pneumoniae; conditions: for MIC: Mycoplasmoides pneumoniae, read-out: thyA mutant MIC
Procedure: (§1) A series dilution of each compound in Mycoplasma growth medium was added to Mpn cultures in 96-well plates. The plates were sealed and incubated at 37°C. Mpn growth was monitored by using growth index value e.g. the ratio of absorbance at 450 nm and 560 nm of the culture medium. Thirty nucleoside and nucleobase analogs and a nucleoside transporter inhibitor were included, and two Mpn strains, wild type and a thyA mutant (lacking TS activity), were used.
(§2) Nucleoside and nucleobase analogs were dissolved in dimethyl sulfoxide (DMSO) as stock solutions and diluted with Mpn culture medium to the desired concentration immediately prior to use.
(§3) Mpn laboratory strain M129 wild type and a thyA mutant strain [31] were used in this study. Mpn was cultured at 37°C in a CO2 incubator using 75 cm^2 tissue culture flasks containing 50 ml Hayflick’s medium, and harvested at day 4 when the medium color change was observed. The cells were harvested and the pellet was resuspended in 6 ml fresh medium and the cfu/ml was determined by serial dilution (10-fold) and plating on broth agar plate. Colonies was counted and cfu/ml was calculated.
(§4) Inhibition studies were performed in 96-well plates containing 200 μl Mpn culture (approximately 10^6 cfu ml^-1) in Hayflick’s medium and 200 μl each compound in series dilutions (2-fold) with the growth medium, with three to four replicas. The plates were sealed with clear adhesive sheets and incubated at 37°C incubator. Absorbance ratio at 450 nm and 560 nm was used as Mpn growth index, which was measured daily, and by visual detection for at least 8 days, as previously described. […] The MICs (minimal inhibitory concentration required to inhibit Mpn growth to 90%) were determined as the lowest concentration at which the growth index was ≈ 10% of the control values (at the time when the control culture medium color turned yellow), essentially as described.

[2] = system: M. pneumoniae wild type (laboratory strain M129); experiment: Mpn growth inhibition in 96-well plates (growth index A450/A560), wild type strain; assay type: cell-based, Mycoplasma pneumoniae; conditions: for MIC: Mycoplasmoides pneumoniae
Procedure: as §1, §2, §3, §4

Mpn HPRT = target: T1, Mpn HPRT (Mycoplasmoides pneumoniae, UniProt P75119); experiment: biochemical
T1 sequence (P75119 1-175): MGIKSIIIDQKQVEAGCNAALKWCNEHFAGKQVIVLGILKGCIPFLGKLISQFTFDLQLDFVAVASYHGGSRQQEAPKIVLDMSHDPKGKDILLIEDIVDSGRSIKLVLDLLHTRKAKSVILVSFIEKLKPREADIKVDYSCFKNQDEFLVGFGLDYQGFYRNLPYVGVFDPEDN
Procedure: (§5) The reaction was initiated by addition of the enzyme, and at 0, 5, 10, and 15 min intervals, 10 μl reaction mixture was withdrawn and spotted onto the DE81 filter paper and dried. The unreacted substrate was washed and the products were eluted and counted in a liquid scintillation counter. With [^3H]-Gua as substrate the reaction (in a total of 25 μl) was initiated by addition of the enzyme (10 μl), incubated at 37°C for 2 min, stopped by addition of 1 M HCl (10 μl), and placed immediately on ice. After neutralization, 15 μl of the mixture was spotted onto the DE81-filter paper. The filters were then washed, and the products were eluted and counted by liquid scintillation.

human HPRT = target: T2, human HPRT (Homo sapiens, UniProt P00492); experiment: HPRT inhibition, DE-81 filter paper assay; assay type: biochemical
T2 construct: made in house
T2 sequence (P00492 1-218): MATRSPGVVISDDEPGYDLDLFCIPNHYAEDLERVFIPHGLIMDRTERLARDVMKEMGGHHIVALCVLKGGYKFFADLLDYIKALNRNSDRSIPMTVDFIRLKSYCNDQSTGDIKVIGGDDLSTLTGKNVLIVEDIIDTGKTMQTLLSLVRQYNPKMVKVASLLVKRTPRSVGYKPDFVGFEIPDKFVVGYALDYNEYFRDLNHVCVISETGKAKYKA
Procedure: as §5

Mpn wild type cells = experiment: Uptake and metabolism of tritium labelled natural nucleoside and nucleobases in the presence of analogs; assay type: cell-based, Mycoplasma pneumoniae; conditions: 10 μM analog, 70 hours; for [3H]-Ade Total uptake / [3H]-Gua Total uptake / [3H]-Hx Total uptake / [3H]-Ura Total uptake / [3H]-dT Total uptake: 37°C, radioactivity in cells / total added; for [3H]-Ade Incorporation / [3H]-Gua Incorporation / [3H]-Hx Incorporation / [3H]-Ura Incorporation / [3H]-dT Incorporation: acid insoluble fraction / total in cells
Procedure: The cells were harvested and analyzed essentially as described. Analogs used were dipyridamole, 6-thioguanine (6-TG), trifluorothymidine (TFT), gemcitabine (dFdC) and 5-fluorodeoxyuridine (5FdU). Total uptake is the percent of radioactivity recovered in the cells divided by total radioactivity added to the growth medium. Percent of acid insoluble (radioactivity found in DNA and RNA) was also calculated. These experiments were done more than three times and data are given as mean ± SD.

[3] = substrate hypoxanthine, 10 μM [3H]-hypoxanthine
[4] = IC50 Human HPRT, substrate hypoxanthine, 10 μM [3H]-hypoxanthine
[5] = minimal concentration producing 90% inhibition, wild type Mpn, read-out: Wild type MIC
[6] = strain not specified, 90% growth inhibition

## Nc1ncn([C@@H]2O[C@H](CO)[C@@H](O)[C@H]2O)c(=O)n1 [5-azacytidine]
[1]
  MIC: > 500 µg/mL
[2]; read-out: Wild type MIC
  MIC: > 500 µg/mL

## Nc1nc(=O)[nH]cc1F [5-fluorocytosine]
[1]
  MIC: 31.2 µg/mL (≈ 242 µM)
[2]; read-out: Wild type MIC
  MIC: 31.2 µg/mL (≈ 242 µM)

## O=c1[nH]cc(F)c(=O)[nH]1 [5-fluorouracil]
[1]
  MIC: 31.2 µg/mL (≈ 240 µM)
[2]; read-out: Wild type MIC
  MIC: 31.2 µg/mL (≈ 240 µM)

## O=c1[nH]c(=O)n([C@H]2C[C@H](O)[C@@H](CO)O2)cc1I [5-iododeoxyuridine]
[1]
  MIC: > 500 µg/mL
[2]; read-out: Wild type MIC
  MIC: 15.6 µg/mL (≈ 44.1 µM)
[2]; wild type Mpn
  Inhibition of wild type Mpn growth (in words): only inhibited the wild type Mpn growth

## Sc1ncnc2nc[nH]c12 [6-mercaptopurine (6-MP), 6-mercaptopurine]
Mpn HPRT; substrate guanine, 10 μM [3H]-guanine
  IC50: 282 ± 21 µM
Mpn HPRT; [3]
  IC50: 89.7 ± 14.5 µM
Human HPRT; 10 μM [3H]-guanine, read-out: IC50 Human HPRT, substrate guanine
  IC50: 25.1 ± 3 µM
Human HPRT; [4]
  IC50: 22.5 ± 3.6 µM
[1]
  MIC: > 500 µg/mL
[2]; read-out: Wild type MIC
  MIC: > 500 µg/mL
[2]; strain not specified
  Inhibition of Mpn growth (in words): did not inhibit Mpn growth

## Cn1c(=O)c2c(ncn2CC(O)CO)n(C)c1=O (centres unmarked) [7-(2,3-dihydroxypropyl)theophylline]
[1]
  MIC: > 500 µg/mL
[2]; read-out: Wild type MIC
  MIC: > 500 µg/mL

## Nc1nc2c(ncn2COCCO)c(=O)[nH]1 [Acyclovir]
[1]
  MIC: 15.6 µg/mL (≈ 69.3 µM)
[2]; read-out: Wild type MIC
  MIC: 15.6 µg/mL (≈ 69.3 µM)

## CC(C)(C)C(=O)OCOP(=O)(COCCn1cnc2c(N)ncnc21)OCOC(=O)C(C)(C)C [Adefovir depivoxil]
[1]; minimal concentration producing 90% inhibition, thyA mutant Mpn
  thyA mutant MIC: > 500 µg/mL
[2]; minimal concentration producing 90% inhibition, wild type Mpn
  Wild type MIC: > 500 µg/mL

## Oc1ncnc2[nH]ncc12 [Allopurinol]
[1]
  MIC: > 500 µg/mL
[2]; [5]
  MIC: > 500 µg/mL

## Nc1ncnc2c1ncn2[C@@H]1O[C@H](CO)[C@@H](O)[C@@H]1O [Arabinosyl adenine]
[1]
  MIC: > 500 µg/mL
[2]; [5]
  MIC: > 500 µg/mL

## Cn1cnc([N+](=O)[O-])c1Sc1ncnc2nc[nH]c12 [Azathioprine]
[1]
  MIC: > 500 µg/mL
[2]; read-out: Wild type MIC
  MIC: > 500 µg/mL

## Cn1c(=O)c2c(ncn2C)n(C)c1=O [Caffeine]
Human HPRT; [4]
  IC50: 2510 ± 156 µM
[1]
  MIC: > 500 µg/mL
[2]; [5]
  MIC: > 500 µg/mL

## Nc1ccn(C[C@@H](CO)OCP(=O)(O)O)c(=O)n1 [Cidofovir]
[1]
  MIC: 31.2 µg/mL (≈ 112 µM)
[2]; read-out: Wild type MIC
  MIC: 31.2 µg/mL (≈ 112 µM)

## OCCN(CCO)c1nc(N2CCCCC2)c2nc(N(CCO)CCO)nc(N3CCCCC3)c2n1 [Dipyridamole]
[1]
  MIC: 1.9 µg/mL (≈ 3.77 µM)
[2]; read-out: Wild type MIC
  MIC: 1.9 µg/mL (≈ 3.77 µM)
[2]; [6]
  MIC (Mpn growth): approximately 2 μg ml^-1
Mpn wild type cells
  [3H]-Ade Total uptake: 0.67±0.1%
  [3H]-Gua Total uptake: 0.09±0.002%
  [3H]-Hx Total uptake: 0.008± 0.001%
  [3H]-Ura Total uptake: 0.20±0.003%
  [3H]-dT Total uptake: 7.2±1.1%
  [3H]-Ade Incorporation: 47±1%
  [3H]-Gua Incorporation: 56±6%
  [3H]-Hx Incorporation: 44±3%
  [3H]-Ura Incorporation: 38±6%
  [3H]-dT Incorporation: 97.0±1.3%

## Nc1nc(F)nc2c1ncn2[C@@H]1O[C@H](COP(=O)(O)O)[C@@H](O)[C@@H]1O [Fludarabine phosphate]
[1]
  MIC: > 500 µg/mL
[2]; read-out: Wild type MIC
  MIC: > 500 µg/mL

## Nc1nc(O)c2ncn(COC(CO)CO)c2n1 [Gancyclovir]
[1]
  MIC: > 500 µg/mL
[2]; read-out: Wild type MIC
  MIC: 7.8 µg/mL (≈ 30.6 µM)
[2]; wild type Mpn
  Inhibition of wild type Mpn growth (in words): inhibited wild type Mpn

## Nc1ccn([C@@H]2O[C@H](CO)[C@@H](O)C2(F)F)c(=O)n1 [Gemcitabine (dFdC), Gemcitabine]
[1]
  MIC: 2.4 µg/mL (≈ 9.12 µM)
[2]; read-out: MIC (Mpn growth), strain not specified, 90% growth inhibition
  MIC: ~2.5 µg/mL (≈ 9.5 µM)
[2]; read-out: Wild type MIC
  MIC: 2.4 µg/mL (≈ 9.12 µM)
[2]; [6]
  MIC (Mpn growth): approximately 2 μg ml^-1
Mpn wild type cells
  [3H]-Ade Total uptake: 0.41±0.08%
  [3H]-Gua Total uptake: 0.10±0.02%
  [3H]-Hx Total uptake: 0.009±0.0002%
  [3H]-Ura Total uptake: 0.12±0.001%
  [3H]-dT Total uptake: 5.2±0.4%
  [3H]-Ade Incorporation: 39±8%
  [3H]-Gua Incorporation: 90±6%
  [3H]-Hx Incorporation: 67±7%
  [3H]-Ura Incorporation: 26±6%
  [3H]-dT Incorporation: 96.7±1.1%

## Nc1ccn([C@@H]2CS[C@H](CO)O2)c(=O)n1 [Lamivudine]
[1]
  MIC: > 500 µg/mL
[2]; read-out: Wild type MIC
  MIC: > 500 µg/mL

## COc1c(C)c2c(c(O)c1C/C=C(\C)CCC(=O)OCCN1CCOCC1)C(=O)OC2 [Mycophenolate mofetil]
[1]
  MIC: 250 µg/mL (≈ 577 µM)
[2]; read-out: Wild type MIC
  MIC: 250 µg/mL (≈ 577 µM)

## CC(=O)CCCCn1c(=O)c2c(ncn2C)n(C)c1=O [Pentoxifylline]
[1]
  MIC: > 500 µg/mL
[2]; read-out: Wild type MIC
  MIC: 62.5 µg/mL (≈ 225 µM)
[2]; wild type Mpn
  Inhibition of wild type Mpn growth (in words): inhibited wild type Mpn

## CCc1nc(N)nc(N)c1-c1ccc(Cl)cc1 [Pyrimethamine]
[1]
  MIC: > 500 µg/mL
[2]; read-out: Wild type MIC
  MIC: > 500 µg/mL

## NC(=O)c1ncn([C@@H]2O[C@H](CO)[C@@H](O)[C@H]2O)n1 [Ribavirin]
[1]
  MIC: > 500 µg/mL
[2]; read-out: Wild type MIC
  MIC: 62.5 µg/mL (≈ 256 µM)
[2]; wild type Mpn
  Inhibition of wild type Mpn growth (in words): inhibited wild type Mpn

## Cc1cn([C@H]2C=C[C@@H](CO)O2)c(=O)[nH]c1=O [Stavudine]
[1]
  MIC: 17.8 µg/mL (≈ 79.4 µM)
[2]; read-out: Wild type MIC
  MIC: 7.8 µg/mL (≈ 34.8 µM)

## Cn1c(=O)c2[nH]cnc2n(C)c1=O [Theophylline]
Mpn HPRT; [3]
  IC50: > 4000 µM
Human HPRT
  IC50: 1580 ± 134 µM
[1]
  MIC: > 500 µg/mL
[2]; read-out: Wild type MIC
  MIC: > 500 µg/mL

## CC(C)[C@H](N)C(=O)OCCOCn1cnc2c(=O)[nH]c(N)nc21 [Valacyclovir]
[1]
  MIC: > 500 µg/mL
[2]; read-out: Wild type MIC
  MIC: > 500 µg/mL
[2]; strain not specified
  Inhibition of Mpn growth (in words): did not inhibit Mpn growth

## Nc1ccn([C@H]2CC[C@@H](CO)O2)c(=O)n1 [Zalcitabine]
[1]
  MIC: > 500 µg/mL
[2]; read-out: Wild type MIC
  MIC: > 500 µg/mL

## Cc1cn([C@H]2C[C@H](N=[N+]=[N-])[C@@H](CO)O2)c(=O)[nH]c1=O [Zidovudine]
[1]
  MIC: 7.8 µg/mL (≈ 29.2 µM)
[2]; read-out: Wild type MIC
  MIC: 7.8 µg/mL (≈ 29.2 µM)

## CN(C)[C@@H]1C(O)=C(C(N)=O)C(=O)[C@@]2(O)C(O)=C3C(=O)c4c(O)cccc4[C@@](C)(O)[C@H]3C[C@@H]12 [tetracycline]
[2]; 2 μg/ml tetracycline, up to 8 days
  Mpn growth in control cultures (in words): no growth
[2]; strain not specified, 90% growth inhibition, read-out: MIC (Mpn growth)
  MIC: 0.1 µg/mL (≈ 0.225 µM)
